# Test results taken from patent US9932637B2, “Genetic polymorphisms associated with cardiovascular disorders and drug response, methods of detection and uses thereof” (CELERA CORPORATION, priority 2003, dated 2018).
# Where “and” joins values, the source holds several entries; their conditions need not be identical. Identical values can stand only once.
# Tested on: patients with prior myocardial infarction (CARE study)
# Assay: CARE aligned analysis (prospective and case/control design, white males): association of genotypes with pravastatin efficacy (Tables 13, 15)
# Format: in vivo, human
# Details: for Pravastatin vs placebo odds ratio, 1 rare allele / Pravastatin vs placebo odds ratio, 2 rare alleles / 2 rare alleles n/total (%), pravastatin patients / Pravastatin vs placebo odds ratio, 0 rare alleles: CARE, F MI/SD/NF MI; for Pravastatin Patients (%) / Pravastatin Patients n/total: F&NF MI, WM
# Protocol: The data presented in Table 8 based on an association of genotypes with pravastatin efficacy of the CARE samples were further analyzed and presented in Table 13. The further analysis was performed to align the data obtained from the analysis of the CARE samples, which was a prospective study, to the analysis of the WOSCOP samples, which was a case/control study. Table 13 also presents an analysis of the association of genotypes with pravastatin efficacy in the WOSCOPs samples. Relative to the analysis performed on the data presented in Table 8, there are two significant differences to determine if the SNP influenced pravastatin efficacy. Data obtained from the CARE samples were separated by study design into two groups, those in the prospective study design group and those in the case/control study design group. The original care study contained 16 protocol defined cardiovascular disease defined endpoints and 150 other phenotypes. […] The control groups used to compare the data were also divided into two groups, the “all possible” control group and the “cleaner” control group. […] Because the participants in the WOSCOPs trial were all white males, only data obtained from white males in the CARE study were analysed. Data from the “all possible” and “cleaner” controls were compared to data obtained from the cases in the prospective study design while only data from “cleaner” controls were compared to cases in the case/control study design. The data from the case/control cohorts were analysed using conditional logistic regression (as opposed to logistic regression used for the original anaylsis).
# The anaylsis was refined as described for both Tables 13 and 14.
# [1] = IL9 hCV3275199, 0 Rare Alleles, CARE Case/Control, All Possible controls
# [2] = IL9 hCV3275199, 0 Rare Alleles, CARE Case/Control, Cleaner controls
# [3] = IL9 hCV3275199, 0 Rare Alleles, CARE Prospective, All Possible controls
# [4] = IL9 hCV3275199, 0 Rare Alleles, CARE Prospective, Cleaner controls
# [5] = IL9 hCV3275199, 1 Rare Allele, CARE Case/Control, All Possible controls
# [6] = IL9 hCV3275199, 1 Rare Allele, CARE Case/Control, Cleaner controls
# [7] = IL9 hCV3275199, 1 Rare Allele, CARE Prospective, All Possible controls
# [8] = IL9 hCV3275199, 1 Rare Allele, CARE Prospective, Cleaner controls
# [9] = ITGA4 hCV7618856, 0 Rare Alleles, CARE Case/Control, Cleaner controls
# [10] = ITGA4 hCV7618856, 1 Rare Allele, CARE Case/Control, All Possible controls
# [11] = ITGA4 hCV7618856, 1 Rare Allele, CARE Case/Control, Cleaner controls
# [12] = ITGA4 hCV7618856, 1 Rare Allele, CARE Prospective, All Possible controls
# [13] = KDR hCV16192174, 0 Rare Alleles, CARE Case/Control, All Possible controls
# [14] = KDR hCV16192174, 0 Rare Alleles, CARE Case/Control, Cleaner controls
# [15] = KDR hCV16192174, 0 Rare Alleles, CARE Prospective, All Possible controls
# [16] = KDR hCV16192174, 0 Rare Alleles, CARE Prospective, Cleaner controls
# [17] = KDR hCV16192174, 1 Rare Allele, CARE Case/Control, All Possible controls
# [18] = KDR hCV16192174, 1 Rare Allele, CARE Case/Control, Cleaner controls
# [19] = KDR hCV16192174, 1 Rare Allele, CARE Prospective, All Possible controls
# [20] = KDR hCV16192174, 1 Rare Allele, CARE Prospective, Cleaner controls
# [21] = KDR hCV22271999, 0 Rare Alleles, CARE Case/Control, All Possible controls
# [22] = KDR hCV22271999, 0 Rare Alleles, CARE Case/Control, Cleaner controls
# [23] = KDR hCV22271999, 0 Rare Alleles, CARE Prospective, All Possible controls
# [24] = KDR hCV22271999, 0 Rare Alleles, CARE Prospective, Cleaner controls
# [25] = KDR hCV22271999, 1 Rare Allele, CARE Case/Control, All Possible controls
# [26] = KDR hCV22271999, 1 Rare Allele, CARE Case/Control, Cleaner controls
# [27] = KDR hCV22271999, 1 Rare Allele, CARE Prospective, All Possible controls
# [28] = KDR hCV22271999, 1 Rare Allele, CARE Prospective, Cleaner controls
smiles,measurement,setting,value
CC[C@H](C)C(=O)O[C@H]1C[C@H](O)C=C2C=C[C@H](C)[C@H](CC[C@@H](O)C[C@@H](O)CC(=O)O)[C@H]21 [pravastatin],"Pravastatin vs placebo odds ratio, 1 rare allele","IL4R hCV2769554, Case/Control",0.74 and 0.64
same,"Pravastatin vs placebo odds ratio, 2 rare alleles","IL4R hCV2769554, Case/Control",1.66 and 1.52
same,Pravastatin Patients (%),[1],(12.4%)
same,Pravastatin Patients n/total,[1],111/896
same,Pravastatin Patients (%),[2],(17.5%)
same,Pravastatin Patients n/total,[2],111/633
same,Pravastatin Patients (%),[3],(12.2%)
same,Pravastatin Patients n/total,[3],111/911
same,Pravastatin Patients (%),[4],(17.2%)
same,Pravastatin Patients n/total,[4],111/644
same,Pravastatin Patients (%),[5],(5.3%)
same,Pravastatin Patients n/total,[5],15/283
same,Pravastatin Patients (%),[6],(8.2%)
same,Pravastatin Patients n/total,[6],15/184
same,Pravastatin Patients (%),[7],(5.2%)
same,Pravastatin Patients n/total,[7],15/290
same,Pravastatin Patients (%),[8],(8.0%)
same,Pravastatin Patients n/total,[8],15/187
same,Pravastatin Patients (%),"ITGA4 hCV7618856, 0 Rare Alleles, CARE Case/Control, All Possible controls",(10.1%)
same,Pravastatin Patients (%),[9],(14.7%)
same,Pravastatin Patients n/total,[9],120/817
same,Pravastatin Patients (%),"ITGA4 hCV7618856, 0 Rare Alleles, CARE Prospective, All Possible controls",(10.0%)
same,Pravastatin Patients (%),[10],(25.0%)
same,Pravastatin Patients n/total,[10],5/20
same,Pravastatin Patients (%),[11],(31.3%)
same,Pravastatin Patients n/total,[11],5/16
same,Pravastatin Patients (%),[12],(23.8%)
same,Pravastatin Patients n/total,[12],5/21
same,"2 rare alleles n/total (%), pravastatin patients","ITGAE hCV1243283, Case/Control",(8.0%)
same,"Pravastatin vs placebo odds ratio, 0 rare alleles","ITGAE hCV1243283, Case/Control",0.79
same,"Pravastatin vs placebo odds ratio, 1 rare allele","ITGAE hCV1243283, Case/Control",0.84
same,"Pravastatin vs placebo odds ratio, 2 rare alleles","ITGAE hCV1243283, Case/Control",0.24
same,Pravastatin Patients (%),[13],(9.0%)
same,Pravastatin Patients n/total,[13],87/971
same,Pravastatin Patients (%),[14],(13.1%)
same,Pravastatin Patients n/total,[14],87/666
same,Pravastatin Patients (%),[15],(8.8%)
same,Pravastatin Patients n/total,[15],87/985
same,Pravastatin Patients (%),[16],(12.9%)
same,Pravastatin Patients n/total,[16],87/675
same,Pravastatin Patients (%),[17],(17.2%)
same,Pravastatin Patients n/total,[17],39/227
same,Pravastatin Patients (%),[18],(23.9%)
same,Pravastatin Patients n/total,[18],39/163
same,Pravastatin Patients (%),[19],(16.6%)
same,Pravastatin Patients n/total,[19],39/235
same,Pravastatin Patients (%),[20],(23.2%)
same,Pravastatin Patients n/total,[20],39/168
same,"Pravastatin vs placebo odds ratio, 0 rare alleles","KDR hCV16192174, Case/Control",0.66 and 0.58
same,"Pravastatin vs placebo odds ratio, 1 rare allele","KDR hCV16192174, Case/Control",1.68
same,"Pravastatin vs placebo odds ratio, 2 rare alleles","KDR hCV16192174, Case/Control",0.41 and 0.35
same,"2 rare alleles n/total (%), pravastatin patients","KDR hCV16192174, Prospective",(10.0%)
same,"Pravastatin vs placebo odds ratio, 0 rare alleles","KDR hCV16192174, Prospective",0.61
same,"Pravastatin vs placebo odds ratio, 1 rare allele","KDR hCV16192174, Prospective",1.41
same,"Pravastatin vs placebo odds ratio, 2 rare alleles","KDR hCV16192174, Prospective",0.30
same,Pravastatin Patients (%),[21],(9.0%)
same,Pravastatin Patients n/total,[21],87/969
same,Pravastatin Patients (%),[22],(13.1%)
same,Pravastatin Patients n/total,[22],87/665
same,Pravastatin Patients (%),[23],(8.9%)
same,Pravastatin Patients n/total,[23],87/983
same,Pravastatin Patients (%),[24],(12.9%)
same,Pravastatin Patients n/total,[24],87/674
same,Pravastatin Patients (%),[25],(17.3%)
same,Pravastatin Patients n/total,[25],39/226
same,Pravastatin Patients (%),[26],(24.1%)
same,Pravastatin Patients n/total,[26],39/162
same,Pravastatin Patients (%),[27],(16.7%)
same,Pravastatin Patients n/total,[27],39/234
same,Pravastatin Patients (%),[28],(23.4%)
same,Pravastatin Patients n/total,[28],39/167
